Measured values published in patent US11667602B2, “Compounds and their use” (AstraZeneca AB, priority 2020, dated 2023).
Values after ≈ are worked out from the molar mass of the structure shown. Read-outs that look alike come from different tables or passages of the source.

Experiments:
[1] = Human Liver Microsomal Stability (Test C); format: in vitro ADME; conditions: human, liver microsomes
How it was run: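 Human liver microsome incubation per the Wernevik et al. integrated DMPK panel protocol. Intrinsic clearance reported as CLint in μl/min/mg protein, averaged arithmetically over repeat runs.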

Solubility (Test F) = format: physicochemical; conditions: arithmetic mean if run multiple times
Method: The assay was conducted according to the Solubility Assay described in pages 164-167 of Wernevik, J. et al., “A Fully Integrated Assay Panel for Early Drug Metabolism and Pharmacokinetics Profiling”, Assay and Drug Development Technologies, 2020, 18(4), 157-179. Data are reported in Table 36 as solubility ([…]. Where the assay was run multiple times for the same compound, the arithmetic mean is reported.

[2] = Rat Hepatocyte Stability (Test E); format: in vitro ADME; conditions: rat, hepatocytes, geometric mean if run multiple times
How it was run: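 Run per the published AstraZeneca-type rat hepatocyte stability protocol (Wernevik et al. panel). Values are mean intrinsic clearance, Clint in μl/min/10^6 cells; geometric mean used for repeated runs.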

human RXFP1 = target: T1, human RXFP1 (Homo sapiens, UniProt Q9HBX9); test: RXFP1 Hu cAMP (Test A); format: cell-based; set-up: expressed in transfected cells; host or cells: Jump-In T-REx CHO-K1 cells (ThermoFisher), induced with 10 ng/ml doxycycline for 24 h
T1 sequence (Q9HBX9 1-757): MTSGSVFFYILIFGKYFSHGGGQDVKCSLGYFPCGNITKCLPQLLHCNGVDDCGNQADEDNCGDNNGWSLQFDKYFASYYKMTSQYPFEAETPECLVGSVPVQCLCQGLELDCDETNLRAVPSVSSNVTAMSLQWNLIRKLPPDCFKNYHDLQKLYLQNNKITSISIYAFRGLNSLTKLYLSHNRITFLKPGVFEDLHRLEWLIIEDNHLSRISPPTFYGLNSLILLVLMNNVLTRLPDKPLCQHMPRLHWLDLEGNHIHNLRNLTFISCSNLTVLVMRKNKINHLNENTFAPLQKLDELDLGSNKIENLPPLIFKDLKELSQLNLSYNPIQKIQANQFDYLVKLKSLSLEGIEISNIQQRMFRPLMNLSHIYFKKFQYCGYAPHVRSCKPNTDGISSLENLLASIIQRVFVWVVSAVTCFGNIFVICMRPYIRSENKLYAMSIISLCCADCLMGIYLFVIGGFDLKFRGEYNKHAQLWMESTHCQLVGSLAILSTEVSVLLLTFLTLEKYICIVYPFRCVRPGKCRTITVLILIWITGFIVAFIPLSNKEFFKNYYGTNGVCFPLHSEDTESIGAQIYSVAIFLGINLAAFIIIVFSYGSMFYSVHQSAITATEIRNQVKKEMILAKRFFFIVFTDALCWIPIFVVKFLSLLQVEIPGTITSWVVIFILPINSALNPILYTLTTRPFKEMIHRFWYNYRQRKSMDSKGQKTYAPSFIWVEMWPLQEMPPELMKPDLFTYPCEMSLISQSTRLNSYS
How it was run: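 Competitive HTRF cAMP readout (2 h, room temperature) in CHO-K1 cells stably expressing human RXFP1, induced with 10 ng/ml doxycycline for 24 h; IBMX 0.5 mM final.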

[3] = Human Plasma Protein Binding (Test B); format: in vitro ADME; conditions: fraction unbound (fu)
How it was run: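 Human plasma protein binding run per the published Wernevik et al. (2020) integrated DMPK panel protocol. Values are fraction unbound (fu, % free); repeat runs averaged arithmetically.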

[4] = Human Hepatocyte Stability (Test D); format: in vitro ADME; conditions: human, cryopreserved pooled human hepatocytes (LiverPool 10-Donor), geometric mean if run multiple times
How it was run: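 Pooled 10-donor cryopreserved human hepatocytes (≥80% viable) in L-15 medium at 0.25×10^6 cells per 0.25 mL well. Compound added from 100 μM acetonitrile solution; incubated at 37 °C with shaking, acetonitrile-quenched, LC-MS analysed. Clint (μL/min/10^6 cells) from ln % parent vs time slope; geometric mean of repeat runs.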

[5] = RXFP1 Hu cAMP, read-out: Test A EC50

SMILES	microsomal CLint [1]	solubility (Solubility (Test F))	hepatocyte CLint [2]	Test A Sinf (human RXFP1; RXFP1 Hu cAMP)	EC50 (human RXFP1; [5])	Test B Human Plasma Protein Binding (% free) [3]	hepatocyte CLint at 1 µM [4]	EC50 (human RXFP1; Test A EC50, RXFP1 Hu cAMP)
COc1cc(F)c(OCCCCCCC(=O)O)cc1C(=O)N[C@@H]1[C@H]2CC[C@H](C2)[C@@H]1C(=O)Nc1cccc(S(=O)(=O)C(F)(F)F)c1 [Example 436]	70 µL/min/mg	220 µM (≈ 145 µg/mL)	> 300 µL/min/1e6 cells	115%	540 nM	0.82 % free	97 µL/min/1e6 cells	
CCC(C)(C)CNC(=O)[C@H]1[C@@H]2CC[C@@H](C2)[C@H]1NC(=O)c1cc(O[C@H]2CC[C@@](C)(C(=O)O)CC2)c(F)cc1OC [Example 37, (1S,4s)-4-(5-(((1S,2R,3S,4R)-3-((2,2-Dimethylbutyl)carbamoyl)bicyclo[2.2.1]heptan-2-yl)carbamoyl)-2-fluoro-4-methoxyphenoxy)-1-methylcyclohexane-1-carboxylic acid]	27 µL/min/mg	830 µM (≈ 454 µg/mL)	22 µL/min/1e6 cells	103%	20 nM	3.8 % free	4.8 µL/min/1e6 cells	
COc1cc(F)c(-c2ccc(CC(=O)O)cc2)cc1C(=O)N[C@@H]1CCC[C@@H]1C(=O)Nc1cccc(S(=O)(=O)C(F)(F)F)c1 [Example 320]	14 µL/min/mg	> 1000 µM	9.6 µL/min/1e6 cells	119%	460 nM	0.67 % free	11 µL/min/1e6 cells	
COc1cc(F)c(O[C@H]2CC[C@@H](C(=O)O)CC2)cc1C(=O)N[C@@H]1[C@@H]2CC[C@@H](C2)[C@@H]1C(=O)Nc1cccc(S(F)(F)(F)(F)F)c1 [Example 509, (1S,4s)-4-(2-Fluoro-4-methoxy-5-(((1R,2R,3S,4S)-3-((3-(pentafluoro-A6-sulfaneyl)phenyl)carbamoyl)bicyclo[2.2.1]heptan-2-yl)carbamoyl)phenoxy)cyclohexane-1-carboxylic acid]	9.4 µL/min/mg	1000 µM (≈ 651 µg/mL)	7 µL/min/1e6 cells	125%	13 nM	<0.070 % free	5 µL/min/1e6 cells	
COc1cc(F)c(-c2ccc(C[C@H](C(=O)O)N(C)C)cc2)cc1C(=O)N[C@@H]1[C@H]2CC[C@H](C2)[C@@H]1C(=O)Nc1cccc(S(=O)(=O)C(F)(F)F)c1 [Example 292, (R)-2-(Dimethylamino)-3-(2′-fluoro-4′-methoxy-5′-(((1S,2R,3S,4R)-3-((3-((trifluoromethyl)sulfonyl)phenyl)carbamoyl)bicyclo[2.2.1]heptan-2-yl)carbamoyl)-[1,1′-biphenyl]-4-yl)propanoic acid]	24 µL/min/mg	18 µM (≈ 12.7 µg/mL)	14 µL/min/1e6 cells	110%	77 nM	1.2 % free	4.6 µL/min/1e6 cells	
COc1cc(F)c(-c2ccc(C(=O)O)cc2)cc1C(=O)N[C@@H]1[C@H](C(=O)Nc2cccc(S(=O)(=O)C(F)(F)F)c2)[C@H]2C=C[C@@H]1C2 (single isomer, unassigned) [Example 553]	9.9 µL/min/mg	> 1000 µM	18 µL/min/1e6 cells		> 50000 nM	<0.30 % free	9.2 µL/min/1e6 cells	
COc1c(F)cc(O[C@H]2CC[C@@](C)(C(=O)O)CC2)cc1C(=O)N[C@@H]1[C@H]2CC[C@H](C2)[C@@H]1C(=O)NCC1(C)CCC1 [Example 374]	44 µL/min/mg	680 µM (≈ 370 µg/mL)	21 µL/min/1e6 cells			2.9 % free	5.3 µL/min/1e6 cells	44 nM
COc1cc(F)c(O[C@H]2CC[C@@](C)(C(=O)O)CC2)cc1C(=O)N[C@@H]1[C@H]2CC[C@H](C2)[C@@H]1C(=O)N[C@H](C)C1(C)CC1 (racemic) [Example 39]	24 µL/min/mg	980 µM (≈ 534 µg/mL)	59 µL/min/1e6 cells	96%	740 nM	4.8 % free	8.2 µL/min/1e6 cells	
COc1cc(C#N)c(O[C@H]2CC[C@@](C)(C(=O)O)CC2)cc1C(=O)N[C@@H]1CCC[C@@H]1C(=O)NCC1(C)CCC1 [Example 360]	8.4 µL/min/mg	> 1000 µM	17 µL/min/1e6 cells	101%	100 nM	15 % free	3.6 µL/min/1e6 cells	
COc1cc(F)c(O[C@H]2CC[C@@](C)(C(=O)O)CC2)cc1C(=O)Nc1ccc(C)cc1C(=O)NCC1(C)CCC1 [Example 216, (1s,4s)-4-(2-Fluoro-4-methoxy-5-((4-methyl-2-(((1-methylcyclobutyl)methyl)-carbamoyl)phenyl)carbamoyl)phenoxy)-1-methylcyclohexane-1-carboxylic acid]	< 3 µL/min/mg	3.1 µM (≈ 1.68 µg/mL)	19 µL/min/1e6 cells	132%	210 nM	0.64 % free	4.2 µL/min/1e6 cells	
COc1cc(F)c(O[C@H]2CC[C@@H](C(=O)O)CC2)cc1C(=O)N[C@H]1[C@@H](C(=O)Nc2ccc(OC)c(S(=O)(=O)C(F)(F)F)c2)[C@@H]2C=C[C@H]1C2 [Example 497, (1S,4s)-4-(2-Fluoro-4-methoxy-5-(((1R,2R,3S,4S)-3-((4-methoxy-3-((trifluoromethyl)sulfonyl)phenyl)carbamoyl)bicyclo[2.2.1]hept-5-en-2-yl)carbamoyl)phenoxy)cyclohexane-1-carboxylic acid]	< 3 µL/min/mg	> 1000 µM	19 µL/min/1e6 cells	108%	320 nM	3.3 % free	4.4 µL/min/1e6 cells	
COc1cc(F)c(-c2ccc(CC(=O)O)cc2)cc1C(=O)N[C@H]1[C@@H](C(=O)Nc2cccc(S(=O)(=O)C(F)(F)F)c2)[C@@H]2C=C[C@H]1C2 (racemic) [Example 234]	4.7 µL/min/mg	690 µM (≈ 446 µg/mL)	9.3 µL/min/1e6 cells	110%	88 nM	<0.30 % free	6.5 µL/min/1e6 cells	
